{"source": "the supplement of paper PMC10307832", "assay_in_all_cases": "relative viability (nuclei count vs DMSO), 5 days (fraction); higher = more cells survive", "key": {"[1]": {"compound": "C1/C(=C\\C2=CC=CS2)/C(=O)/C(=C/C3=CC=CS3)/C1 + Cc1nc(Nc2ncc(C(=O)Nc3c(C)cccc3Cl)s2)cc(N2CCN(CCO)CC2)n1 [Dasatinib] (partner 0.075 µM)", "in_short": "(§1)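 Lung cancer cell lines in 1536-well plates got either a single drug or a fixed anchor-drug dose together with five library-drug doses (not always all listed) in √10 steps, by pin tool, on the day after seeding. Nuclei were counted after 5 days, and relative viability is the treated-to-vehicle ratio of nuclei counts. Values are medians of duplicate plates.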"}, "[2]": {"compound": "C1/C(=C\\C2=CC=CS2)/C(=O)/C(=C/C3=CC=CS3)/C1 + CC(=O)Nc1cccc(-n2c(=O)n(C3CC3)c(=O)c3c(Nc4ccc(I)cc4F)n(C)c(=O)c(C)c32)c1 [Trametinib] (partner 0.02 µM)", "in_short": "as §1"}, "TPCA-1 + Linsitinib": {"compound": "C1=CC(=CC=C1C2=CC(=C(S2)NC(=O)N)C(=O)N)F [TPCA-1] + C[C@]1(O)C[C@@H](c2nc(-c3ccc4ccc(-c5ccccc5)nc4c3)c3c(N)nccn32)C1 [Linsitinib] (partner 1 µM)", "in_short": "as §1"}, "[3]": {"compound": "C1/C(=C\\C2=CC=CS2)/C(=O)/C(=C/C3=CC=CS3)/C1 + COc1cccc2cc(-c3nc([C@H]4CC[C@H](C(=O)O)CC4)n4ncnc(N)c34)[nH]c12 [OSI-027] (partner 0.5 µM)", "in_short": "as §1"}}, "data": [{"cell line": "UMC-11", "values": [{"measurement": "relative viability", "setting": "[1]; first compound 0.2 µM", "value": 0.555}, {"measurement": "relative viability", "setting": "[1]; first compound 0.6325 µM", "value": 0.507}, {"measurement": "relative viability", "setting": "[1]; first compound 20 µM", "value": 0.472}, {"measurement": "relative viability", "setting": "[2]; first compound 0.2 µM", "value": 0.69}, {"measurement": "relative viability", "setting": "[2]; first compound 0.6325 µM", "value": 0.737}, {"measurement": "relative viability", "setting": "[2]; first compound 2 µM", "value": 0.675}, {"measurement": "relative viability", "setting": "[2]; first compound 6.325 µM", "value": 0.671}, {"measurement": "relative viability", "setting": "[2]; first compound 20 µM", "value": 0.715}, {"measurement": "relative viability", "setting": "TPCA-1 + Linsitinib; first compound 0.04 µM", "value": 1.03}, {"measurement": "relative viability", "setting": "TPCA-1 + Linsitinib; first compound 0.1265 µM", "value": 1}, {"measurement": "relative viability", "setting": "TPCA-1 + Linsitinib; first compound 0.4 µM", "value": 1.04}, {"measurement": "relative viability", "setting": "TPCA-1 + Linsitinib; first compound 1.265 µM", "value": 0.918}, {"measurement": "relative viability", "setting": "TPCA-1 + Linsitinib; first compound 4 µM", "value": 0.615}, {"measurement": "relative viability", "setting": "[3]; first compound 0.2 µM", "value": 0.474}, {"measurement": "relative viability", "setting": "[3]; first compound 0.6325 µM", "value": 0.484}, {"measurement": "relative viability", "setting": "[3]; first compound 20 µM", "value": 0.45}]}]}
